Experiments:
[1] = molecular target: T1, Mitogen-activated protein kinase 14 (Homo sapiens, UniProt Q16539); assay: Dissociation constant fit from ITC data against human Mitogen-activated protein kinase p38 alpha (constant fit)
[2] = molecular target: T1, Mitogen-activated protein kinase 14; assay: Dissociation constant at Tref against human Mitogen-activated protein kinase p38 alpha
[3] = molecular target: T1, Mitogen-activated protein kinase 14; assay: Dissociation constant at Tm against human Mitogen-activated protein kinase p38 alpha
[4] = molecular target: T1, Mitogen-activated protein kinase 14; assay: Dissociation constant at Tm against human Mitogen-activated protein kinase p38 alpha (fluorescence exchange curve)

T1 sequence (Q16539 whole entry): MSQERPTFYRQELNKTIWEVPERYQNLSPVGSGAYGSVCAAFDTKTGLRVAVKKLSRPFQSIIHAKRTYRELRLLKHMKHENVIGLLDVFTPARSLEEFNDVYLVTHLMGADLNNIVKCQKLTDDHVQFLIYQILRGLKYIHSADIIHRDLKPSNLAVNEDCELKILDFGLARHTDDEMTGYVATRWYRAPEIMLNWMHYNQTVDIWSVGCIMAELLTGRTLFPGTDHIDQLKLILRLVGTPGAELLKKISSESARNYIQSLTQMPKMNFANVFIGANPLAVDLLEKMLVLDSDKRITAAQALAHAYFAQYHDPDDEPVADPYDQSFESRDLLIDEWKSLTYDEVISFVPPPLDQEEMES

SMILES	Kd [1]	Kd [2]	Kd [3]	Kd [4]
O=C(Nc1ccc(OCCN2CCOCC2)c2ccccc12)Nc1ccnn1-c1ccccc1	1180 nM	2400 nM	6070 nM	–
Cn1nc(C(C)(C)C)cc1NC(=O)Nc1ccc(OCCN2CCOCC2)c2ccccc12	10 nM	25.7 nM	210 nM	–
CC(C)c1cc(NC(=O)Nc2ccc(OCCN3CCOCC3)c3ccccc23)n(-c2ccccc2)n1	–	3.4 nM	62.8 nM	6 nM
Cc1ccc(-n2nc(C(C)(C)C)cc2NC(=O)Nc2ccccc2)cc1	5 nM	16.8 nM	177 nM	21 nM
CC(C)(C)c1cc(NC(=O)Nc2ccc(OCCN3CCOCC3)c3ccccc23)n(-c2ccccc2)n1	–	0.231 nM	5.3 nM	0.09 nM
Cc1ccc(-n2nc(C(C)(C)C)cc2NC(=O)Nc2cccc3ccccc23)cc1	–	10.6 nM	118 nM	1 nM
CC(C)(CO)c1cc(NC(=O)Nc2ccc(OCCN3CCOCC3)c3ccccc23)n(-c2ccccc2)n1	20 nM	56.4 nM	493 nM	36 nM
